Where only a bound is given, the exact number is not on record here.

Drawing on patent US12522595B2, “Bicyclic ether O-glycoprotein-2-acetamido-2-deoxy-3-D-glucopyranosidase inhibitors” (BIOGEN MA INC., priority 2019, dated 2026), this text covers IC50 for 27 molecules.

For this assay, the target named is T1, Recombinant full length human OGA enzyme (Homo sapiens, UniProt O60502).
T1 construct: Recombinant full length human OGA enzyme was purchased from Origene; purchased Origene
T1 sequence (O60502 1-916): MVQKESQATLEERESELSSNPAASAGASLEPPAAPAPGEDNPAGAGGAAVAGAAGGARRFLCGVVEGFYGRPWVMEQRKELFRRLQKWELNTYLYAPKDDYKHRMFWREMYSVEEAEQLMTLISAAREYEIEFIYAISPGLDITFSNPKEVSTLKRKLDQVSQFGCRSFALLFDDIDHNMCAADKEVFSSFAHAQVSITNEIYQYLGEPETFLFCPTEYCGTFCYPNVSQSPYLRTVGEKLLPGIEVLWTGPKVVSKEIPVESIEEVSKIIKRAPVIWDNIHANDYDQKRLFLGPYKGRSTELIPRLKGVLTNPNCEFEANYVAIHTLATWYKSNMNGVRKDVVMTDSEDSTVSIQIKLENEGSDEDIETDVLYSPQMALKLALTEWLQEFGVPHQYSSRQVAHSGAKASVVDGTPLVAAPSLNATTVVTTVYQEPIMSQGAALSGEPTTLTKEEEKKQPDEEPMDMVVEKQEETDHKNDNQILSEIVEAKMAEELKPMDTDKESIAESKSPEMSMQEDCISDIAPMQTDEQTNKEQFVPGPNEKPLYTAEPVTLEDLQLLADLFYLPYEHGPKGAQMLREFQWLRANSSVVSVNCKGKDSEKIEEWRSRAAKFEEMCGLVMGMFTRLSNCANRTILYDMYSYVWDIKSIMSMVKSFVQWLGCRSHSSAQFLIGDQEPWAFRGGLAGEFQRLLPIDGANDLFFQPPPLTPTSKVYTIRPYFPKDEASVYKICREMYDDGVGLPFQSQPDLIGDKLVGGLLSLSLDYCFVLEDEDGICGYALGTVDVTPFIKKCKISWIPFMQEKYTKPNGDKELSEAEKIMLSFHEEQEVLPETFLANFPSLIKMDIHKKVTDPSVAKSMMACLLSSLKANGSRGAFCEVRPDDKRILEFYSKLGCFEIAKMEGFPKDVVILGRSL
As to the kind of experiment: OGA enzyme inhibition biochemical assay. As to conditions: 1 nM OGA, 100 μM 4-MUGlcNAc (Km), pH 6.4, 90 minutes at room temperature, 10-point dose-response from 20 μM. The method in brief: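 1 nM OGA with 100 μM 4-MUGlcNAc (Km) in McIlvaine buffer pH 6.4, 0.01% BSA, 90 min at room temperature; quenched with 3M glycine pH 10, fluorescence Ex 355/Em 460 nm. 10-point, 4-fold dilutions from 20 μM; 4-parameter variable-slope fit.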
`CC(=O)Nc1ncc(CN2C[C@H](Oc3nccc4ccccc34)C[C@@H]2C)s1` [Example 26, N-(5-(((2S,4R)-4-(isoquinolin-1-yloxy)-2-methylpyrrolidin-1-yl)methyl)thiazol-2-yl)acetamide]: the IC50 worked out at 4.5 nM.

Turning to `CC(=O)Nc1nc(F)c(CN2C[C@H](Oc3ncnc4cccnc34)C[C@@H]2C)s1` [Example 116, N-(4-fluoro-5-(((2S,4R)-2-methyl-4-(pyrido[3,2-d]pyrimidin-4-yloxy)pyrrolidin-1-yl)methyl)thiazol-2-yl)acetamide], the IC50 was found to be 2.6 nM.

`CC(=O)Nc1ncc(CN2C[C@H](Oc3ccnc4c3CCCC4)C[C@@H]2C)s1` [Example 33, N-(5-(((2S,4R)-2-methyl-4-((5,6,7,8-tetrahydroquinolin-4-yl)oxy)pyrrolidin-1-yl)methyl)thiazol-2-yl)acetamide]: the half-maximal inhibitory concentration (IC50) was determined as 16 nM.

On to `CC(=O)Nc1ncc(CN2C[C@H](Oc3nc4ccccc4cc3C)C[C@@H]2C)s1` [Example 29, N-(5-(((2S,4R)-2-methyl-4-((3-methylquinolin-2-yl)oxy)pyrrolidin-1-yl)methyl)thiazol-2-yl)acetamide], for which the IC50 was 5.5 nM.

As for `CC(=O)Nc1nc(F)c(CN2C[C@H](Oc3nc4ncccc4o3)C[C@@H]2C)s1` [Example 158, N-(4-fluoro-5-(((2S,4R)-2-methyl-4-(oxazolo[4,5-b]pyridin-2-yloxy)pyrrolidin-1-yl)methyl)thiazol-2-yl)acetamide], the IC50 was below 1 nM.

Regarding `CC(=O)Nc1nc(F)c(CN2C[C@H](Oc3ccc4cnccc4n3)C[C@@H]2C)s1` [Example 120, N-(5-(((2S,4R)-4-((1,6-naphthyridin-2-yl)oxy)-2-methylpyrrolidin-1-yl)methyl)-4-fluorothiazol-2-yl)acetamide], the IC50 is below 1 nM.

On to `CC(=O)Nc1ncc(CN2C[C@H](Oc3ccc4nn(C)cc4c3)C[C@@H]2C)s1` [Example 44, N-(5-(((2S,4R)-2-methyl-4-((2-methyl-2H-indazol-5-yl)oxy)pyrrolidin-1-yl)methyl)thiazol-2-yl)acetamide], for which the IC50 was below 1 nM.

On to `CC(=O)Nc1nc(F)c(CN2C[C@H](Oc3ncnc4c(F)cccc34)C[C@@H]2C)s1` [Example 122, N-(4-fluoro-5-(((2S,4R)-4-((8-fluoroquinazolin-4-yl)oxy)-2-methylpyrrolidin-1-yl)methyl)thiazol-2-yl)acetamide], for which the IC50 is below 1 nM.

Turning to `CC(=O)Nc1ncc(CN2C[C@H](Oc3cc4c(Cl)ccnc4cc3F)C[C@@H]2C)s1` [Example 7, N-(5-(((2S,4R)-4-((4-chloro-7-fluoroquinolin-6-yl)oxy)-2-methylpyrrolidin-1-yl)methyl)thiazol-2-yl)acetamide], the IC50 was below 1 nM.

Take `CC(=O)Nc1nc(F)c(CN2C[C@H](Oc3ccnc4cn(C)nc34)C[C@@H]2C)s1` [Example 134, N-(4-fluoro-5-(((2S,4R)-2-methyl-4-((2-methyl-2H-pyrazolo[4,3-b]pyridin-7-yl)oxy)pyrrolidin-1-yl)methyl)thiazol-2-yl)acetamide]: the IC50 was below 1 nM.

In the case of `CC(=O)Nc1ncc(CN2C[C@H](Oc3cccn4ccnc34)C[C@@H]2C)s1` [Example 156, N-(5-(((2S,4R)-4-(imidazo[1,2-a]pyridin-8-yloxy)-2-methylpyrrolidin-1-yl)methyl)thiazol-2-yl)acetamide], the IC50 was below 1 nM.

Regarding `CC(=O)Nc1nc(F)c(CN2C[C@H](Oc3cccc4ncnn34)C[C@@H]2C)s1` [Example 102, N-(5-(((2S,4R)-4-([1,2,4]triazolo[1,5-a]pyridin-5-yloxy)-2-methylpyrrolidin-1-yl)methyl)-4-fluorothiazol-2-yl)acetamide], the half-maximal inhibitory concentration (IC50) was below 1 nM.

Regarding `CC(=O)Nc1ncc(CN2C[C@H](Oc3ccc4c(Cl)nccc4c3)C[C@@H]2C)s1` [Example 1, N-(5-(((2S,4R)-4-((1-chloroisoquinolin-6-yl)oxy)-2-methylpyrrolidin-1-yl)methyl)thiazol-2-yl)acetamide], the IC50 is below 1 nM.

Consider `CC(=O)Nc1ncc(CN2C[C@H](Oc3nccc4nccn34)C[C@@H]2C)s1` [Example 97, N-(5-(((2S,4R)-4-(imidazo[1,2-c]pyrimidin-5-yloxy)-2-methylpyrrolidin-1-yl)methyl)thiazol-2-yl)acetamide], for which the half-maximal inhibitory concentration (IC50) is below 1 nM.

Consider `CC(=O)Nc1nc(F)c(CN2C[C@H](Oc3nccc4cn(C)nc34)C[C@@H]2C)s1` [Example 137, N-(4-fluoro-5-(((2S,4R)-2-methyl-4-((2-methyl-2H-pyrazolo[3,4-c]pyridin-7-yl)oxy)pyrrolidin-1-yl)methyl)thiazol-2-yl)acetamide], for which the IC50 was 4.3 nM.

In the case of `CC(=O)Nc1ncc(CN2C[C@H](Oc3nc4c(cc3C#N)CCCC4)C[C@@H]2C)s1` [Example 32, N-(5-(((2S,4R)-4-((3-cyano-5,6,7,8-tetrahydroquinolin-2-yl)oxy)-2-methylpyrrolidin-1-yl)methyl)thiazol-2-yl)acetamide], the IC50 is 11 nM.

As to `CC(=O)Nc1nc(F)c(CN2C[C@H](Oc3ccc4c(nnn4C)n3)C[C@@H]2C)s1` [Example 152, N-(4-fluoro-5-(((2S,4R)-2-methyl-4-((1-methyl-1H-[1,2,3]triazolo[4,5-b]pyridin-5-yl)oxy)pyrrolidin-1-yl)methyl)thiazol-2-yl)acetamide], the IC50 was below 1 nM.

Turning to `CC(=O)Nc1nc(F)c(CN2C[C@H](Oc3cccc4nccn34)C[C@@H]2C)s1` [Example 64, N-(4-fluoro-5-(((2S,4R)-4-(imidazo[1,2-a]pyridin-5-yloxy)-2-methylpyrrolidin-1-yl)methyl)thiazol-2-yl)acetamide], the IC50 is below 1 nM.

As to `CC(=O)Nc1nc(F)c(CN2C[C@H](Oc3ccc4nn(C)nc4n3)C[C@@H]2C)s1` [Example 151, N-(4-fluoro-5-(((2S,4R)-2-methyl-4-((2-methyl-2H-[1,2,3]triazolo[4,5-b]pyridin-5-yl)oxy)pyrrolidin-1-yl)methyl)thiazol-2-yl)acetamide], the IC50 is below 1 nM.

As to `CC(=O)Nc1nc(F)c(CN2C[C@H](Oc3nccc4occc34)C[C@@H]2C)s1` [Example 70, N-(4-fluoro-5-(((2S,4R)-4-(furo[3,2-c]pyridin-4-yloxy)-2-methylpyrrolidin-1-yl)methyl)thiazol-2-yl)acetamide], the IC50 is 1.2 nM.

In the case of `CC(=O)Nc1nc(F)c(CN2C[C@H](Oc3ncnc4cnccc34)C[C@@H]2C)s1` [Example 118, N-(4-fluoro-5-(((2S,4R)-2-methyl-4-(pyrido[3,4-d]pyrimidin-4-yloxy)pyrrolidin-1-yl)methyl)thiazol-2-yl)acetamide], the concentration for half-maximal inhibition (IC50) is below 1 nM.

As for `CC(=O)Nc1ncc(CN2C[C@H](Oc3ccc4cccnc4n3)C[C@@H]2C)s1` [Example 81, N-(5-(((2S,4R)-4-((1,8-naphthyridin-2-yl)oxy)-2-methylpyrrolidin-1-yl)methyl)thiazol-2-yl)acetamide], the IC50 is below 1 nM.

`COc1cc2cnc(O[C@@H]3C[C@H](C)N(Cc4sc(NC(C)=O)nc4F)C3)cc2cc1F` [Example 130, N-(4-fluoro-5-(((2S,4R)-4-((6-fluoro-7-methoxyisoquinolin-3-yl)oxy)-2-methylpyrrolidin-1-yl)methyl)thiazol-2-yl)acetamide]: the IC50 is below 1 nM.

As for `CC(=O)Nc1nc(F)c(CN2C[C@H](Oc3ccnc4cc(F)cnc34)C[C@@H]2C)s1` [Example 129, N-(4-fluoro-5-(((2S,4R)-4-((7-fluoro-1,5-naphthyridin-4-yl)oxy)-2-methylpyrrolidin-1-yl)methyl)thiazol-2-yl)acetamide], the IC50 was below 1 nM.

Regarding `CC(=O)Nc1nc(F)c(CN2C[C@H](Oc3ccc4ncnn4c3C)C[C@@H]2C)s1` [Example 105, N-(4-fluoro-5-(((2S,4R)-2-methyl-4-((5-methyl-[1,2,4]triazolo[1,5-a]pyridin-6-yl)oxy)pyrrolidin-1-yl)methyl)thiazol-2-yl)acetamide], the IC50 was below 1 nM.

Turning to `CC(=O)Nc1nc(F)c(CN2C[C@H](Oc3cccn4ccnc34)C[C@@H]2C)s1` [Example 157, N-(4-fluoro-5-(((2S,4R)-4-(imidazo[1,2-a]pyridin-8-yloxy)-2-methylpyrrolidin-1-yl)methyl)thiazol-2-yl)acetamide], the IC50 is below 1 nM.

`CC(=O)Nc1nc(F)c(CN2C[C@H](Oc3nccc4ncnn34)C[C@@H]2C)s1` [Example 145, N-(5-(((2S,4R)-4-([1,2,4]triazolo[1,5-c]pyrimidin-5-yloxy)-2-methylpyrrolidin-1-yl)methyl)-4-fluorothiazol-2-yl)acetamide]: the 50% inhibitory concentration (IC50) was below 1 nM.
